Active and inactive are the calls of the source.
Tests used:
[1] = target: T1, Corticotropin-releasing factor receptor 2/Corticotropin-releasing factor-binding protein (Homo sapiens, UniProt P24387+Q13324); experiment: Dose Response confirmation of uHTS hits for small molecule antagonists of the CRF-binding protein and CRF-R2 receptor complex.; assay type: functional; conditions: read-out: IC50_Mean
T1 sequence (Q13324 whole entry): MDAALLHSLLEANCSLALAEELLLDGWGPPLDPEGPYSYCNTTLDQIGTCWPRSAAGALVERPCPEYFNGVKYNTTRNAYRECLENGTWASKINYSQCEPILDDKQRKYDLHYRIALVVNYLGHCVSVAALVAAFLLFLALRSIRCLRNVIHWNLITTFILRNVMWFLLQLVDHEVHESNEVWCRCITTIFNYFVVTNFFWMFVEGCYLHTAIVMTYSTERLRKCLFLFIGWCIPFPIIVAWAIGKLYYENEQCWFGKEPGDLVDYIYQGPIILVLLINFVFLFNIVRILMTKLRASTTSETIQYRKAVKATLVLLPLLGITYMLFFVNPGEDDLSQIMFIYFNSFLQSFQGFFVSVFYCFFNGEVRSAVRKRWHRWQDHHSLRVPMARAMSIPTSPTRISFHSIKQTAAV
T1 sequence (P24387 whole entry): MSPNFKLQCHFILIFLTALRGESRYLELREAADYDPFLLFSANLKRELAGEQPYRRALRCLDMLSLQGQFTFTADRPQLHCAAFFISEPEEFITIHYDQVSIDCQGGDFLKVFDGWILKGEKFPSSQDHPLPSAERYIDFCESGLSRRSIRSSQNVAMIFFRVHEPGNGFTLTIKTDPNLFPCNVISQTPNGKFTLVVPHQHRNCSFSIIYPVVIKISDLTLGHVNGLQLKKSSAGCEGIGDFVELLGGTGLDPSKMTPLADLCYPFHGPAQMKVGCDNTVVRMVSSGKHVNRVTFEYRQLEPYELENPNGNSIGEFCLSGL

[2] = blockers of CRF-binding protein–CRF-R2 complex – cell-based, uHTS hits, 384-well, dose response (AID 651639); assay type: functional, Homo sapiens; conditions: read-out: IC50_Mean
[3] = target: T1, Corticotropin-releasing factor receptor 2/Corticotropin-releasing factor-binding protein; experiment: activators of CRF receptor 2 with binding protein – uHTS hits, confirmation (AID 602473); assay type: functional; conditions: read-out: EC50_Mean
[4] = target: T2, CAAX prenyl protease 2 (Saccharomyces cerevisiae S288c, UniProt Q03530); assay type: biochemical
T2 sequence (Q03530 whole entry): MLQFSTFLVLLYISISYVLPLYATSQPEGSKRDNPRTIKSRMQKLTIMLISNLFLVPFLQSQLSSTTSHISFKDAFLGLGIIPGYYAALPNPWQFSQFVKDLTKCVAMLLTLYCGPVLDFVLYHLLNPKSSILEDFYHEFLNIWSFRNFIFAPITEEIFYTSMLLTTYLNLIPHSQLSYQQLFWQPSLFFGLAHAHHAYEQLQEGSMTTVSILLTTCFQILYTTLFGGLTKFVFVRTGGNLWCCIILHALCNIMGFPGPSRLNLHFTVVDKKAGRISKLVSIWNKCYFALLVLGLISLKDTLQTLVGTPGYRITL

[5] = target: T2, CAAX prenyl protease 2; experiment: inhibition of Rce1p peptide cleavage – biochemical, plate reader, dry powder retest, dose response (AID 588851)
[6] = target: X-box-binding protein 1 (Homo sapiens, UniProt P17861); assay type: functional, Cricetulus griseus;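 note: confirmatory dose-response counter-screen serving a CHOP assay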
[7] = target: Glycogen synthase kinase-3 alpha (Homo sapiens, UniProt P49840); experiment: Inhibition of Human GSK-3 alpha Activity Measured in Biochemical System Using Microfluidics - 2063-06_Inhibitor_Dose_DryPowder_Activity_Set2. [Related pubchem assays (depositor defined):AID2709]
[8] = target: Glycogen synthase kinase-3 beta (Homo sapiens, UniProt P49841); experiment: Inhibition of Human GSK-3 beta Activity Measured in Biochemical System Using Microfluidics - 2063-05_Inhibitor_Dose_DryPowder_Activity_Set2. [Related pubchem assays (depositor defined):AID2709]
[9] = target: Cyclin-dependent kinase 5/CDK5 activator 1 (Homo sapiens, UniProt Q00535); experiment: human CDK5 activity blockade – biochemical, microfluidic mobility shift, dry powder, selectivity assay for GSK-3 alpha inhibitor project, dose response (AID 588430)
[10] = target: Protein disulfide-isomerase (Homo sapiens, UniProt P07237); experiment: inhibition of PDI-driven insulin aggregation – biochemical, turbidity, absorbance, cherry-picked samples, dose response (AID 602350); assay type: functional
[11] = target: Multidrug resistance protein CDR1 (Candida albicans, UniProt P43071); experiment: inhibition of Nile Red efflux via Candida CDR1 – S. cerevisiae AD1-8u, singleplex, Cherry Pick1 hits, dose response (AID 588606); assay type: functional
[12] = fluconazole-exposed Candida albicans growth modulators – fluorescence, retest, confirmation (AID 2467); assay type: functional, cell-based
[13] = system: Candida albicans; experiment: Candida growth effect without fluconazole – C. albicans CaCi-2, dry powder, counter-screen for antifungal drug resistance project, dose response (AID 488802); assay type: functional, organism-based
[14] = system: Candida albicans; experiment: antifungal activity against resistant Candida strain – CaCi-8, fluconazole, Alamar Blue, dry powder, dose response (AID 488807); assay type: functional, organism-based
[15] = NIH-3T3 fibroblast cytotoxicity, dose response, cytotoxicity control, cell-based, fluorescence, Alamar Blue, secondary assay (AID 2327); assay type: functional;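 note: NIH-3T3 mouse fibroblasts cultured with fluconazole at 8 µg/mL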
[16] = target: G-protein coupled receptor 55 (Homo sapiens, UniProt Q9Y2T6); experiment: selective activators of receptor GPR55 – imaging, U2OS cells, beta-arrestin-GFP redistribution, primary screen (AID 1961); assay type: functional
[17] = target: T3, High affinity choline transporter 1 (Homo sapiens, UniProt Q9GZV3); experiment: human choline transporter potentiators, potency – cell-based, 10-point CRC, membrane potential dye, dose response (AID 602376); assay type: functional
T3 sequence (Q9GZV3 whole entry): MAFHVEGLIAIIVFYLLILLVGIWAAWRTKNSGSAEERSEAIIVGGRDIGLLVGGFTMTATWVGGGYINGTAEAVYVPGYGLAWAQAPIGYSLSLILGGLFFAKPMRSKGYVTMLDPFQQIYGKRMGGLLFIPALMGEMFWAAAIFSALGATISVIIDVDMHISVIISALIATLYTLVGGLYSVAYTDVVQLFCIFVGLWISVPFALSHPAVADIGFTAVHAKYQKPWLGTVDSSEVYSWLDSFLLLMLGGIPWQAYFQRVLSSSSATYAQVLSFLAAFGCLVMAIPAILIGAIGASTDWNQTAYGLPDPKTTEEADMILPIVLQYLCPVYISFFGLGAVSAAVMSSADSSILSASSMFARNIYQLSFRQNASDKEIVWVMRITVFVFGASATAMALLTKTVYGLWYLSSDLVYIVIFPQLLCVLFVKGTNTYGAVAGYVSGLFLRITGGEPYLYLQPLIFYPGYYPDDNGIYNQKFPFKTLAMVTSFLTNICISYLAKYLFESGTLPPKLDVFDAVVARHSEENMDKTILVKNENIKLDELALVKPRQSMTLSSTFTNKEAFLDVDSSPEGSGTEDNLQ

Cyclin-dependent kinase 5/CDK5 activator 1, sequence (Q00535 whole entry): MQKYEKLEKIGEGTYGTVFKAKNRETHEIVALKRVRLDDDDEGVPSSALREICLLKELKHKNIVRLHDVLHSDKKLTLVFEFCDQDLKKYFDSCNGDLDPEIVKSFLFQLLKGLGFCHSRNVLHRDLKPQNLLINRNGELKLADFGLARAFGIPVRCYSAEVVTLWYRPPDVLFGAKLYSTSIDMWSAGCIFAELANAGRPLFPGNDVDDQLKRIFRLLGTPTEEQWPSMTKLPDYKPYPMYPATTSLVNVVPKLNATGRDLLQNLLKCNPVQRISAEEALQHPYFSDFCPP
Cyclin-dependent kinase 5/CDK5 activator 1, sequence (Q15078 whole entry, further chain): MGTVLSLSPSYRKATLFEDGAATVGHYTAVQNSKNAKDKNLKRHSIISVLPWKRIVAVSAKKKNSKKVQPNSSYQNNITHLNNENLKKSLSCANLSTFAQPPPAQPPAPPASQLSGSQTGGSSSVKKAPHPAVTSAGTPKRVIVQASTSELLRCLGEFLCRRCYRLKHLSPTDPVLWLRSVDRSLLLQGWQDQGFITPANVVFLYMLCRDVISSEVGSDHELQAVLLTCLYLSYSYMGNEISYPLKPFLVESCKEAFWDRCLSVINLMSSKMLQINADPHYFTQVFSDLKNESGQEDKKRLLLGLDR
Multidrug resistance protein CDR1, sequence (P43071 whole entry, looked up): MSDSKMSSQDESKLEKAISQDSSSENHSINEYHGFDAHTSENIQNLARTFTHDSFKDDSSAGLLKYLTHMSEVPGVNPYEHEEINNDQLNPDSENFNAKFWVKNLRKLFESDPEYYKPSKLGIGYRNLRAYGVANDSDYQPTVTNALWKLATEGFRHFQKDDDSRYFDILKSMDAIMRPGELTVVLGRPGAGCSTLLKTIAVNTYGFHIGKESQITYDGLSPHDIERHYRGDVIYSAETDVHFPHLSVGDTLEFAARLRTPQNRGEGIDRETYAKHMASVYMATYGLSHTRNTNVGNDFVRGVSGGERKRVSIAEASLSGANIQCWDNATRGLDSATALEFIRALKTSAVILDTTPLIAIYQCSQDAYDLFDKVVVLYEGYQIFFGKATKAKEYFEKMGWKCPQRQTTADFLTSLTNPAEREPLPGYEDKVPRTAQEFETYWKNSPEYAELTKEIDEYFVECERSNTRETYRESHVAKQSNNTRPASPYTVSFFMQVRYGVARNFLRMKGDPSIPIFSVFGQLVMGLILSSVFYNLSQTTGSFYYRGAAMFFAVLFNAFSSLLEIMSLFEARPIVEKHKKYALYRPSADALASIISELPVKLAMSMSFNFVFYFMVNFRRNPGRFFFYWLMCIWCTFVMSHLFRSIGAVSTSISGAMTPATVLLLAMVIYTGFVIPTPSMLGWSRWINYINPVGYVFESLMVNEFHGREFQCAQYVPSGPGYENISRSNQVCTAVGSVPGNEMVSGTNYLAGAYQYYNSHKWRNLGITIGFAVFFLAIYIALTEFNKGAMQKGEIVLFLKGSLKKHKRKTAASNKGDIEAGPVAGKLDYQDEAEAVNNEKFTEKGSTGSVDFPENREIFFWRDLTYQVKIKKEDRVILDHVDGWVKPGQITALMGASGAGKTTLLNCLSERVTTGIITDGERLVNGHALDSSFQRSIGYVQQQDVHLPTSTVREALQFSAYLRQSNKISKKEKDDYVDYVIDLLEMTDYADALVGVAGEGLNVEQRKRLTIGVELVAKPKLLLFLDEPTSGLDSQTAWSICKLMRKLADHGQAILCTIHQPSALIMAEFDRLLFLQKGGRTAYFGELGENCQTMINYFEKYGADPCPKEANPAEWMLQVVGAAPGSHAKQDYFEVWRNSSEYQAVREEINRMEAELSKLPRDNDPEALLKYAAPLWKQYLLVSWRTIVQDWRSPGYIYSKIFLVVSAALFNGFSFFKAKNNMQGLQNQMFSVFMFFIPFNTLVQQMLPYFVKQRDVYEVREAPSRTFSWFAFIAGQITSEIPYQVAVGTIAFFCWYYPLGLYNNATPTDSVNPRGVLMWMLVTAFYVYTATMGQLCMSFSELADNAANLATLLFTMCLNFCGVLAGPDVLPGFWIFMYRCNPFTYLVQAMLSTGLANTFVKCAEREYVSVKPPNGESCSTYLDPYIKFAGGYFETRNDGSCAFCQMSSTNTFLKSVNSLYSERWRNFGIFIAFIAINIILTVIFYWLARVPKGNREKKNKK
X-box-binding protein 1, sequence (P17861 whole entry): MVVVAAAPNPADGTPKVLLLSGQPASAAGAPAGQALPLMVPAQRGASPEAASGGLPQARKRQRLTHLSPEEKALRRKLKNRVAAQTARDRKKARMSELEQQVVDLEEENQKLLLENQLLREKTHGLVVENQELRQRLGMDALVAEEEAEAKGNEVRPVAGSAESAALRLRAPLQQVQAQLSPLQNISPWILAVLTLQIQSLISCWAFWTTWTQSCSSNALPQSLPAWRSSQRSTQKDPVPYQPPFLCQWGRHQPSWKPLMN
Glycogen synthase kinase-3 beta, sequence (P49841 whole entry): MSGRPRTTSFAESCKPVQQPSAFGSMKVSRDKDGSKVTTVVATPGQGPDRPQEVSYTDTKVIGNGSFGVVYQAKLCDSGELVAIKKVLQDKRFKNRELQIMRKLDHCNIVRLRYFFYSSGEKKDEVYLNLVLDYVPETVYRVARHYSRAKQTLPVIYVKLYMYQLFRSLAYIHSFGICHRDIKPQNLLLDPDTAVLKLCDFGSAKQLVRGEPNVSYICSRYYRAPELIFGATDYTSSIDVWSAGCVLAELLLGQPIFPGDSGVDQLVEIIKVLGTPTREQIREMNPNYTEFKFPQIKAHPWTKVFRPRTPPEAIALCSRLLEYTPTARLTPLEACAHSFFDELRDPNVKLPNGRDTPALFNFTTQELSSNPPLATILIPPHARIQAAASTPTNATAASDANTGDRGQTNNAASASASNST
Protein disulfide-isomerase, sequence (P07237 whole entry): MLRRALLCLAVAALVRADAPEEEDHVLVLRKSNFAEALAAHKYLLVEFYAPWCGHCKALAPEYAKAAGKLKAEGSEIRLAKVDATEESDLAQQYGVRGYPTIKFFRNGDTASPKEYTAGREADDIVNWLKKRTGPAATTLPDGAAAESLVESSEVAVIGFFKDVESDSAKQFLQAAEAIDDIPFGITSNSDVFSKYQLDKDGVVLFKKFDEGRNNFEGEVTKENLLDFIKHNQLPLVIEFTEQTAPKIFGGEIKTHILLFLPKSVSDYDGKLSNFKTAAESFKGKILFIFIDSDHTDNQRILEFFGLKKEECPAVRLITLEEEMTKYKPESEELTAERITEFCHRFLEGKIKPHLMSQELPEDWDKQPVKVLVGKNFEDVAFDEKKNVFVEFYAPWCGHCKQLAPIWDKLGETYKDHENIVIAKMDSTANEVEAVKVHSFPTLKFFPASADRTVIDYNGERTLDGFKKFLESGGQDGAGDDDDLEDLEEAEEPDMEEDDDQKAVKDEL
G-protein coupled receptor 55, sequence (Q9Y2T6 whole entry): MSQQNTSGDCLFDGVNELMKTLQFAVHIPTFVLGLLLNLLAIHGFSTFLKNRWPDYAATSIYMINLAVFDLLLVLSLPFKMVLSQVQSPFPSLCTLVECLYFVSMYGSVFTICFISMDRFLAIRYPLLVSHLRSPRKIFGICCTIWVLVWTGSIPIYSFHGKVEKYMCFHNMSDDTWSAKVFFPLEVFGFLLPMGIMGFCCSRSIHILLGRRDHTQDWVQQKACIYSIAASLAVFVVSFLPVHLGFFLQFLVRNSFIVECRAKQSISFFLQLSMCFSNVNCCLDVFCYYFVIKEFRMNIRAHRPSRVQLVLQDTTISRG
Glycogen synthase kinase-3 alpha, sequence (P49840 whole entry): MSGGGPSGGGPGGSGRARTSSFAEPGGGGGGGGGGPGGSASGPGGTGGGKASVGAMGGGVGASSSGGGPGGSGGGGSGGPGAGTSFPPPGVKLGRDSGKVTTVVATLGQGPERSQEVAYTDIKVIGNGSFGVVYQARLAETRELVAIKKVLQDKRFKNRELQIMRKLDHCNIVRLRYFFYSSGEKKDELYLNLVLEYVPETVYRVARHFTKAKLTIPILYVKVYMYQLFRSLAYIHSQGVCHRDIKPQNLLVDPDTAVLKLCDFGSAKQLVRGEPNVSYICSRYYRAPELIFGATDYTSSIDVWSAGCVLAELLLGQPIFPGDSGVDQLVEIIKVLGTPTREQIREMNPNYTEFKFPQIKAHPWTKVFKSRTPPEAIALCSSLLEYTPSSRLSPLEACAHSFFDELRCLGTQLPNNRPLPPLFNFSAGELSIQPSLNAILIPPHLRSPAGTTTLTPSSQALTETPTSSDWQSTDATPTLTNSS

For `CCOc1ccc(-n2c(SCc3ccc([N+](=O)[O-])cc3)nnc2-c2ccc(OC)cc2)cc1`, the IC50 [1] was 1.68 µM (active), the IC50 [2] was > 20 µM (inactive) and the EC50 [3] was > 53 µM (inactive). The AC50 [4] was 0.102 µM (active) and the AC50 [5] was 1.12 µM (active).
For `O=C(Nc1cccc(Cl)c1)Nc1ccnc(-c2cccnc2)n1`, the “Absolute IC50 (XBP1)” value [6] was 10 µM, the AC50 [7] was 3.97 µM (active) and the AC50 [8] was 0.716 µM (active). The AC50 [9] was 20.8 µM (active).
For `CCN(CC)CCNC(=O)C(C(=O)c1ccccc1)n1ccccc1=O` (configuration not stated), the AC50 [10] was 2.16 µM (active).
With `CC(C)=C1C2CCC1C1C(=O)N(c3nc(-c4ccc(C(C)C)cc4)c(C)s3)C(=O)C21` (configuration not stated) the EC50 [11] was 3.79 µM (active).
With `CC1CCN(C(=O)Cn2c3ccccc3c3nc4n(c(=O)c32)CCS4)CC1` the EC50 [12] was 0.979 µM (active), the AC50 [13] was 108 µM (active) and the AC50 [14] was 1.97 µM (active). For the same compound, the EC50 [15] was > 160 µM (inconclusive).
In the case of `CSc1ccc(-c2sc(Nc3ccccc3)n[n+]2-c2ccccc2)cc1`, the EC50 [16] is reported as > 32 µM (inactive) and the EC50 [17] is reported as 7.33 µM (active).

— ChEMBL document CHEMBL1201862, “PubChem BioAssay data set” (2004)
